The results in this text go back to article PMC5218480 (PLoS ONE, 2017).

Molecules are shown by their SMILES.

This test deals with MV-4-11 cells. Put plainly: Gene expression microarray analysis (Affymetrix PrimeView) and GSEA. The format is cell-based, human. More on the design: RFU PODN (11730768_x_at) / Fold change /veh PODN (11730768_x_at) / RFU LINC00158 (11744669_a_at) / Fold change /veh LINC00158 (11744669_a_at) / RFU DUSP10 (11751237_a_at) / Fold change /veh DUSP10 (11751237_a_at) / RFU ID3 (11757404_x_at) / Fold change /veh ID3 (11757404_x_at) / RFU PLEKHG5 (11737974_s_at) / Fold change /veh PLEKHG5 (11737974_s_at) / RFU LRRC4B (11730491_at) / Fold change /veh LRRC4B (11730491_at) / RFU GIMAP4 (11747438_a_at) / Fold change /veh GIMAP4 (11747438_a_at) / RFU KRT8 (11758183_x_at) / Fold change /veh KRT8 (11758183_x_at) / RFU CNN1 (11734310_a_at) / Fold change /veh CNN1 (11734310_a_at) / RFU VPS37D (11726825_at) / Fold change /veh VPS37D (11726825_at) / RFU C10orf10 (11716522_x_at) / Fold change /veh C10orf10 (11716522_x_at) / RFU KIR2DL2 /// KIR2DL4 /// KIR2DL5A /// KIR2DL5B /// KIR2DS1 /// KIR2DS2 /// KIR2DS3 /// KIR2DS4 /// KIR3DL3 /// KIR3DL3 /// KIR3DS1 (11738374_at) / Fold change /veh KIR2DL2 /// KIR2DL4 /// KIR2DL5A /// KIR2DL5B /// KIR2DS1 /// KIR2DS2 /// KIR2DS3 /// KIR2DS4 /// KIR3DL3 /// KIR3DL3 /// KIR3DS1 (11738374_at) / RFU C1QL1 (11718748_at) / Fold change /veh C1QL1 (11718748_at) / RFU TMPRSS4 (11747572_a_at) / Fold change /veh TMPRSS4 (11747572_a_at) / RFU HAMP (11756126_x_at) / Fold change /veh HAMP (11756126_x_at) / RFU RNFT2 (11725882_a_at) / Fold change /veh RNFT2 (11725882_a_at) / RFU NR4A2 (11747474_a_at) / Fold change /veh NR4A2 (11747474_a_at) / RFU ABCC12 (11746883_a_at) / Fold change /veh ABCC12 (11746883_a_at) / RFU TMEM136 (11760407_x_at) / Fold change /veh TMEM136 (11760407_x_at) / RFU CLDN22 /// WWC2 (11732394_at) / Fold change /veh CLDN22 /// WWC2 (11732394_at) / RFU HLA-DPB1 (11760878_x_at) / Fold change /veh HLA-DPB1 (11760878_x_at) / RFU SPINT1 (11716480_a_at) / Fold change /veh SPINT1 (11716480_a_at) / RFU GAP43 (11754022_s_at) / Fold change /veh GAP43 (11754022_s_at) / RFU A4GNT (11735810_at) / Fold change /veh A4GNT (11735810_at) / RFU PRB3 (11715151_x_at) / Fold change /veh PRB3 (11715151_x_at) / RFU TUBB4B (11761932_at) / Fold change /veh TUBB4B (11761932_at) / RFU CAPN14 (11732068_a_at) / Fold change /veh CAPN14 (11732068_a_at) / RFU TMCC2 (11721928_a_at) / Fold change /veh TMCC2 (11721928_a_at) / RFU IRGQ (11745062_a_at) / Fold change /veh IRGQ (11745062_a_at) / RFU FAM174B (11720279_a_at) / Fold change /veh FAM174B (11720279_a_at) / RFU TMPRSS4 (11748680_a_at) / Fold change /veh TMPRSS4 (11748680_a_at) / RFU FAM212B (11763350_a_at) / Fold change /veh FAM212B (11763350_a_at) / RFU PLEKHG5 (11743358_a_at) / Fold change /veh PLEKHG5 (11743358_a_at) / RFU ZSCAN30 (11745921_a_at) / Fold change /veh ZSCAN30 (11745921_a_at) / RFU CMKLR1 (11741424_a_at) / Fold change /veh CMKLR1 (11741424_a_at) / RFU LOC101060620 /// MAPK8IP1 (11723275_at) / Fold change /veh LOC101060620 /// MAPK8IP1 (11723275_at) / RFU SPTSSB (11747773_x_at) / Fold change /veh SPTSSB (11747773_x_at) / RFU PRSS12 (11739890_at) / Fold change /veh PRSS12 (11739890_at) / RFU BIN1 (11741810_x_at) / Fold change /veh BIN1 (11741810_x_at) / RFU WNT11 (11732464_a_at) / Fold change /veh WNT11 (11732464_a_at) / RFU C10orf10 (11716521_a_at) / Fold change /veh C10orf10 (11716521_a_at) / RFU C5orf56 (11738089_at) / Fold change /veh C5orf56 (11738089_at) / RFU CYB561 (11721691_x_at) / Fold change /veh CYB561 (11721691_x_at) / RFU ANKRD19P (11752326_a_at) / Fold change /veh ANKRD19P (11752326_a_at) / RFU OR2T12 /// OR2T33 /// OR2T8 (11738714_s_at) / Fold change /veh OR2T12 /// OR2T33 /// OR2T8 (11738714_s_at) / RFU VCAN (11748164_a_at) / Fold change /veh VCAN (11748164_a_at) / RFU JSRP1 (11732532_at) / Fold change /veh JSRP1 (11732532_at) / RFU KRTAP10-11 (11738290_x_at) / Fold change /veh KRTAP10-11 (11738290_x_at) / RFU MYO3A (11730013_a_at) / Fold change /veh MYO3A (11730013_a_at) / RFU EBF3 (11725865_a_at) / Fold change /veh EBF3 (11725865_a_at) / RFU CAMK2N1 (11719241_x_at) / Fold change /veh CAMK2N1 (11719241_x_at) / RFU C5orf56 (11738088_a_at) / Fold change /veh C5orf56 (11738088_a_at) / RFU OLFML3 (11715873_a_at) / Fold change /veh OLFML3 (11715873_a_at) / RFU LOC100653217 /// NTM (11731650_a_at) / Fold change /veh LOC100653217 /// NTM (11731650_a_at) / RFU MAPK11 (11762145_a_at) / Fold change /veh MAPK11 (11762145_a_at) / RFU FIZ1 (11724087_x_at) / Fold change /veh FIZ1 (11724087_x_at) / RFU OASL (11726364_x_at) / Fold change /veh OASL (11726364_x_at) / RFU SOX15 (11748057_x_at) / Fold change /veh SOX15 (11748057_x_at) / RFU CD79A (11719716_a_at) / Fold change /veh CD79A (11719716_a_at) / RFU HIST1H1D (11736915_at) / Fold change /veh HIST1H1D (11736915_at) / RFU CASKIN2 (11723855_a_at) / Fold change /veh CASKIN2 (11723855_a_at) / RFU LOC730098 (11760151_x_at) / Fold change /veh LOC730098 (11760151_x_at) / RFU OR4N2 (11742367_at) / Fold change /veh OR4N2 (11742367_at) / RFU PRRT2 (11749266_a_at) / Fold change /veh PRRT2 (11749266_a_at) / RFU SNX32 (11753110_a_at) / Fold change /veh SNX32 (11753110_a_at) / RFU CDHR5 (11726645_a_at) / Fold change /veh CDHR5 (11726645_a_at) / RFU RCAN1 (11760418_a_at) / Fold change /veh RCAN1 (11760418_a_at) / RFU FAM167A (11723789_a_at) / Fold change /veh FAM167A (11723789_a_at) / RFU FAM26E (11764081_at) / Fold change /veh FAM26E (11764081_at) / RFU ISYNA1 (11749810_s_at) / Fold change /veh ISYNA1 (11749810_s_at) / RFU ACY1 (11761880_at) / Fold change /veh ACY1 (11761880_at) / RFU 11764098_at / Fold change /veh 11764098_at / RFU SAMD14 (11745864_x_at) / Fold change /veh SAMD14 (11745864_x_at) / RFU NPB (11741838_a_at) / Fold change /veh NPB (11741838_a_at) / RFU TMPRSS6 (11731388_a_at) / Fold change /veh TMPRSS6 (11731388_a_at) / RFU KRTAP10-2 (11738614_at) / Fold change /veh KRTAP10-2 (11738614_at) / RFU ARHGAP8 /// PRR5-ARHGAP8 (11727945_x_at) / Fold change /veh ARHGAP8 /// PRR5-ARHGAP8 (11727945_x_at) / RFU KRTAP5-7 /// NADSYN1 (11734609_at) / Fold change /veh KRTAP5-7 /// NADSYN1 (11734609_at) / RFU RASL12 (11751679_a_at) / Fold change /veh RASL12 (11751679_a_at) / RFU CDKN2B (11736163_a_at) / Fold change /veh CDKN2B (11736163_a_at) / RFU PRF1 (11729649_at) / Fold change /veh PRF1 (11729649_at) / RFU, ZNF638 /// ZNF638-IT1 / Fold change vs veh, ZNF638 /// ZNF638-IT1 / RFU, PANK3 / Fold change vs veh, PANK3 / RFU, SH3YL1 / Fold change vs veh, SH3YL1 / RFU, ZEB2 / Fold change vs veh, ZEB2 / RFU, NRIP1 / Fold change vs veh, NRIP1 / RFU, PTTG1IP / Fold change vs veh, PTTG1IP / RFU, CAPN2 / Fold change vs veh, CAPN2 / RFU, MED14 / Fold change vs veh, MED14 / RFU, SNORA58 / Fold change vs veh, SNORA58 / RFU, C1orf63 / Fold change vs veh, C1orf63 / RFU, LRRFIP1 / Fold change vs veh, LRRFIP1 / RFU, NDUFAF7 / Fold change vs veh, NDUFAF7 / RFU, SLC12A2 / Fold change vs veh, SLC12A2 / RFU, IBTK / Fold change vs veh, IBTK / RFU, ESF1 / Fold change vs veh, ESF1 / Fold change vs veh, TMEM50B / RFU, TAOK1 / Fold change vs veh, TAOK1 / RFU, ACBD3 / Fold change vs veh, ACBD3 / RFU, TMA16 / Fold change vs veh, TMA16 / RFU, RWDD3 / Fold change vs veh, RWDD3 / RFU, BCAT1 / Fold change vs veh, BCAT1 / RFU, EDEM3 / Fold change vs veh, EDEM3 / RFU, TMEM33 / Fold change vs veh, TMEM33 / RFU, WDR75 / Fold change vs veh, WDR75 / RFU, AHCTF1 / Fold change vs veh, AHCTF1 / RFU, TFRC / Fold change vs veh, TFRC / RFU, ZDHHC17 / Fold change vs veh, ZDHHC17 / RFU, NOM1 / Fold change vs veh, NOM1 / RFU, ARL8B / Fold change vs veh, ARL8B / RFU, ZBTB11 / Fold change vs veh, ZBTB11 / RFU, TAMM41 / Fold change vs veh, TAMM41 / RFU, KIAA1704 /// LOC100996395 / Fold change vs veh, KIAA1704 /// LOC100996395 / RFU, ING1 / Fold change vs veh, ING1 / RFU, TRMT61B / Fold change vs veh, TRMT61B / RFU, FUBP3 / Fold change vs veh, FUBP3 / RFU, TP53 / Fold change vs veh, TP53 / RFU, TNKS2 / Fold change vs veh, TNKS2 / RFU, ZFP14 / Fold change vs veh, ZFP14 / RFU, ACTR2 / Fold change vs veh, ACTR2 / RFU, PPP3R1 / Fold change vs veh, PPP3R1 / RFU, PIK3R1 / Fold change vs veh, PIK3R1 / RFU, HNRNPA1 / Fold change vs veh, HNRNPA1 / RFU, RNF170 / Fold change vs veh, RNF170 / RFU, ZNF28 / Fold change vs veh, ZNF28 / RFU, RNGTT / Fold change vs veh, RNGTT / RFU, OGT / Fold change vs veh, OGT / RFU, BRD1 / Fold change vs veh, BRD1 / RFU, MARS / Fold change vs veh, MARS / RFU, ZNF655 / Fold change vs veh, ZNF655 / RFU, FAHD1 / Fold change vs veh, FAHD1 / RFU, BDP1 / Fold change vs veh, BDP1 / RFU, LRRCC1 / Fold change vs veh, LRRCC1 / RFU, ARID1A / Fold change vs veh, ARID1A / RFU, ZNF146 / Fold change vs veh, ZNF146 / RFU, ZNF330 / Fold change vs veh, ZNF330 / RFU, GPN3 / Fold change vs veh, GPN3 / RFU, C9orf123 / Fold change vs veh, C9orf123 / RFU, N4BP2L2 / Fold change vs veh, N4BP2L2 / RFU, ARFIP1 / Fold change vs veh, ARFIP1 / RFU, FAM179B / Fold change vs veh, FAM179B / RFU, BCL10 / Fold change vs veh, BCL10 / RFU, UHRF1BP1L / Fold change vs veh, UHRF1BP1L / RFU, BET1 / Fold change vs veh, BET1 / RFU, CNOT2 / Fold change vs veh, CNOT2 / RFU, ZNF268 / Fold change vs veh, ZNF268 / Fold change vs veh, ZNF507 / RFU, DGCR2 / Fold change vs veh, DGCR2 / RFU, WDSUB1 / Fold change vs veh, WDSUB1 / Fold change vs veh, HSP90B1 /// MIR3652 / RFU, ADSS / Fold change vs veh, ADSS / RFU, GK / Fold change vs veh, GK / RFU, ZNF148 / Fold change vs veh, ZNF148 / RFU, TAF9 / Fold change vs veh, TAF9 / RFU, SLC1A5 / Fold change vs veh, SLC1A5 / RFU, SLMO2 / Fold change vs veh, SLMO2 / RFU, ABCC4 / Fold change vs veh, ABCC4 / RFU, LOC101060439 /// RAP1B / Fold change vs veh, LOC101060439 /// RAP1B / RFU, RFX7 / Fold change vs veh, RFX7 / RFU, GTPBP10 / Fold change vs veh, GTPBP10 / RFU, CNEP1R1 / Fold change vs veh, CNEP1R1 / RFU, BIVM-ERCC5 /// ERCC5 / Fold change vs veh, BIVM-ERCC5 /// ERCC5 / RFU, ILF3 / Fold change vs veh, ILF3 / RFU 11762660_at / Fold change /veh 11762660_at / RFU VCAN (11757783_s_at) / Fold change /veh VCAN (11757783_s_at) / RFU DDX43 (11728927_at) / Fold change /veh DDX43 (11728927_at) / RFU KRT8 (11758188_x_at) / Fold change /veh KRT8 (11758188_x_at) / RFU NKD1 (11759106_at) / Fold change /veh NKD1 (11759106_at) / RFU SRD5A1 (11742802_a_at) / Fold change /veh SRD5A1 (11742802_a_at) / RFU TPSAB1 /// TPSB2 (11721975_s_at) / Fold change /veh TPSAB1 /// TPSB2 (11721975_s_at) / RFU GSTM3 (11746129_a_at) / Fold change /veh GSTM3 (11746129_a_at) / RFU IL23R (11737362_x_at) / Fold change /veh IL23R (11737362_x_at) / RFU TMEM51 (11727254_a_at) / Fold change /veh TMEM51 (11727254_a_at) / RFU PIWIL2 (11732686_x_at) / Fold change /veh PIWIL2 (11732686_x_at) / RFU ORM1 (11744905_x_at) / Fold change /veh ORM1 (11744905_x_at) / RFU CCDC152 (11743942_at) / Fold change /veh CCDC152 (11743942_at) / RFU ECM1 (11717891_a_at) / Fold change /veh ECM1 (11717891_a_at) / RFU IL23R (11748794_a_at) / Fold change /veh IL23R (11748794_a_at) / RFU TNFAIP8L3 (11732012_x_at) / Fold change /veh TNFAIP8L3 (11732012_x_at) / RFU MBOAT4 (11741988_at) / Fold change /veh MBOAT4 (11741988_at) / RFU 11764193_at / Fold change /veh 11764193_at / RFU TMEM53 (11763286_at) / Fold change /veh TMEM53 (11763286_at) / RFU MAGEB2 (11727129_at) / Fold change /veh MAGEB2 (11727129_at) / RFU TMEM200A (11744735_a_at) / Fold change /veh TMEM200A (11744735_a_at) / RFU CCDC152 (11751479_a_at) / Fold change /veh CCDC152 (11751479_a_at) / RFU FAM211A (11726209_a_at) / Fold change /veh FAM211A (11726209_a_at) / RFU RGS16 (11746705_a_at) / Fold change /veh RGS16 (11746705_a_at) / RFU VCAN (11755009_s_at) / Fold change /veh VCAN (11755009_s_at) / RFU RHOB (11743442_s_at) / Fold change /veh RHOB (11743442_s_at) / RFU RGS16 (11720943_a_at) / Fold change /veh RGS16 (11720943_a_at) / RFU RGS16 (11720944_at) / Fold change /veh RGS16 (11720944_at) / RFU, VPS4B / Fold change vs veh, VPS4B / RFU, CREB1 / Fold change vs veh, CREB1 / RFU, DNAJC13 / Fold change vs veh, DNAJC13 / RFU, GNAQ / Fold change vs veh, GNAQ / RFU, CDK5R1 / Fold change vs veh, CDK5R1 / RFU, ZRANB3 / Fold change vs veh, ZRANB3 / RFU, CUL4A / Fold change vs veh, CUL4A / RFU, CCNY / Fold change vs veh, CCNY / RFU, UFL1 / Fold change vs veh, UFL1 / RFU, COG3 / Fold change vs veh, COG3 / RFU, DIAPH2 / Fold change vs veh, DIAPH2 / RFU, SKA2 / Fold change vs veh, SKA2 / RFU, AFF3 / Fold change vs veh, AFF3 / RFU, LMF1 / Fold change vs veh, LMF1 / RFU, IPO11 / Fold change vs veh, IPO11 / RFU, DFFB / Fold change vs veh, DFFB / RFU, FOXP1 / Fold change vs veh, FOXP1 / RFU, CARD8 / Fold change vs veh, CARD8 / RFU, STRN3 / Fold change vs veh, STRN3 / RFU, ADK / Fold change vs veh, ADK / RFU, RASSF2 / Fold change vs veh, RASSF2 / RFU, WIPF1 / Fold change vs veh, WIPF1 / RFU, LARP1B / Fold change vs veh, LARP1B / RFU, RASA1 / Fold change vs veh, RASA1 / RFU, RB1 / Fold change vs veh, RB1 / RFU, PPFIA1 / Fold change vs veh, PPFIA1 / RFU, MAT2A / Fold change vs veh, MAT2A / RFU, CCT5 / Fold change vs veh, CCT5 / RFU, WDR92 / Fold change vs veh, WDR92 / RFU, CUX1 / Fold change vs veh, CUX1 / RFU, TTC7A / Fold change vs veh, TTC7A / RFU, TMEM135 / Fold change vs veh, TMEM135 / RFU, DEPTOR / Fold change vs veh, DEPTOR / RFU, CPM / Fold change vs veh, CPM / RFU, DNAJB6 / Fold change vs veh, DNAJB6 / RFU, CACNA2D3 / Fold change vs veh, CACNA2D3 / RFU, DTX4 / Fold change vs veh, DTX4 / RFU, TFCP2 / Fold change vs veh, TFCP2 / RFU, GMCL1 /// GMCL1P1 / Fold change vs veh, GMCL1 /// GMCL1P1 / RFU, AEBP2 / Fold change vs veh, AEBP2 / RFU, SNHG1 /// SNORD22 /// SNORD25 /// SNORD26 /// SNORD27 /// SNORD28 /// SNORD29 /// SNORD31 / Fold change vs veh, SNHG1 /// SNORD22 /// SNORD25 /// SNORD26 /// SNORD27 /// SNORD28 /// SNORD29 /// SNORD31 / Fold change (Aza/veh), C12orf56 (ProbeSet 11735607_a_at) / Fold change (ACY-1035/veh), C12orf56 (ProbeSet 11735607_a_at) / Fold change (Aza/veh), FGFR1OP (ProbeSet 11751329_s_at) / Fold change (ACY-1035/veh), FGFR1OP (ProbeSet 11751329_s_at) / Fold change (Aza/veh), VPS36 (ProbeSet 11739960_a_at) / Fold change (ACY-1035/veh), VPS36 (ProbeSet 11739960_a_at) / RFU SYPL1 (11715823_x_at) / Fold change /veh SYPL1 (11715823_x_at) / RFU IGFBP7 (11715501_s_at) / Fold change /veh IGFBP7 (11715501_s_at) / RFU REEP3 (11722064_at) / Fold change /veh REEP3 (11722064_at) / RFU IGLL1 (11728026_x_at) / Fold change /veh IGLL1 (11728026_x_at): dose or concentration left out as unconfirmed. To be noted: MV-4-11 cells, 48 hours.

Consider `Nc1ncn([C@@H]2O[C@H](CO)[C@@H](O)[C@H]2O)c(=O)n1` [azacitidine], for which the “Fold change /veh GSTM3 (11746129_a_at)” value is 1.35.
